`CON=Cc1c[nH]c(-c2ccc(F)cc2)c1-c1ccncc1` gave a melting point of 242 to 248 °C.
With `COC(=O)/C=C/c1ccc(C)cc1Br` the melting point was 70 °C.
For `CCn1ncc2c1ncc1c(SC)nc3ncnn3c12`, the melting point was 198 to 200 °C.
Work on `N#Cc1cnc2cnc(F)cc2c1Nc1ccc(Cl)cc1Cl` yielded a melting point of 206 to 208 °C.
`CCOC(=O)c1cnoc1-c1cc(Cl)cc(Cl)c1` showed a melting point of 50 to 51 °C.
`CCCCc1oc2ccccc2c1-c1ncc(-c2ccc3cc(OCc4nnn[nH]4)ccc3c2)o1` showed a melting point of 238 to 240 °C.
With `CC(C)c1cccc(C(C)C)c1NC(=O)NCC1(c2ccc(-c3ccccc3)cc2)CCC1` the melting point was 177 to 179 °C.
In the case of `CCN(CC)C(=O)c1nc(-c2c(Cl)cc(C(F)(F)F)cc2Cl)[nH]c1C#N`, the melting point is reported as 195 to 197 °C.
`CN1CCC2(CC1)NC(=S)N(c1ccc(C#N)c(C(F)(F)F)c1)C2=N` showed a melting point of over 264 °C.
Work on `OCC1(c2ccc(Cl)cc2)CCN(CCC(c2ccccc2)(c2ccccc2)c2ccccc2)CC1` yielded a melting point of 156 to 158 °C.
Molecule `CC(C)(C)c1ccc(C2CCSC(c3c(F)cccc3F)=N2)cc1` (stereo not drawn) has a melting point of 91 to 91.5 °C.
In the case of `CCn1c2ccccc2c2cc(NC(=O)OC)ncc21`, the melting point is reported as 213 to 214 °C.
`NS(=O)(=O)c1ccc(-c2cnn(CC(F)(F)F)c(=O)c2Oc2ccc(F)cc2)cc1` showed a melting point of 150 to 152 °C.
`Fc1c(F)c(-c2c(F)c(F)c(Oc3cccc4ccccc34)c(F)c2F)c(F)c(F)c1Oc1cccc2ccccc12` gave a melting point of 189 to 191 °C.
`O=C(NCCN1CCc2ccc3c(c21)CCO3)C1CC1` gave a melting point of 147 to 149 °C.
In the case of `COc1ccc(-n2nc(CBr)cc2-c2ccc(Cl)cc2)cc1`, the melting point is reported as 88 to 90 °C.
`COc1cccc(CC(=O)O)c1OCCCc1cn(-c2ccc(Cl)cn2)nc1C(C)C` gave a melting point of 148 to 149 °C.
In the case of `COC1=C(OC)C(=O)C(CCCCCCCCCCCOC(C)=O)=C(C)C1=O`, the melting point is reported as 41 °C.
Molecule `CC(C)(C)OC(=O)NCC(O)CN` (stereo not drawn) has a melting point of 77 to 79 °C.
For `Cc1cc(-c2ccc(C(F)(F)F)nc2)nc(-c2ccnc(-c3ccc(S(N)(=O)=O)s3)c2)n1`, the melting point was 289 °C.
`N#Cc1nc(NCc2cnn(-c3c(Cl)cc(C(F)(F)F)cc3Cl)n2)[nH]c1C#N` showed a melting point of 213 to 215 °C.
Molecule `CCOc1nsc(NC(=O)N(C)C)c1C#N` has a melting point of 204 to 205 °C.
For `Cn1c(S(=O)(=O)c2ccc(=O)[nH]n2)cc2ccccc21`, the melting point was 233 to 235 °C.
Work on `O=C(O)CCOc1cccc2c1CCc1sc(SC(c3ccccc3)c3ccccc3)nc1-2` yielded a melting point of 156 to 158 °C.
`O=P(O)(O)Cc1ccc(S(=O)(=O)c2ccccc2)cc1` gave a melting point of 217 to 219 °C.
`Cc1ccc2c(c1C)OC(C)(C)C2=O` showed a melting point of 79 to 81 °C.
For `COc1ccc(C2C(C(=O)c3ccc(C(C)C)cc3)=C(O)C(=O)N2c2ccc(C)nn2)cc1` (stereo not drawn), the melting point was 263 to 267 °C.
Molecule `N#CC1CCN(C(c2ccccc2)(c2ccccc2)c2ccccc2)CC1` has a melting point of 206 °C.
With `COc1cc2ccccc2cc1C(=O)NNC(=O)c1cc2ccccc2cc1OC` the melting point was 260 to 263 °C.
Work on `CC(=O)c1sc(-c2ccncc2)c(-c2ccncc2)c1C` yielded a melting point of 140 to 142 °C.
Molecule `CCCCCCNC(=O)Oc1ccc2oc3ccccc3c2c1` has a melting point of 109 to 110 °C.
With `O=C(O)CCC(=O)Nc1ccc(-c2ccncc2)cc1` the melting point was 251 to 252 °C.
`COC(=O)c1ccc2cc(OC)ccc2c1O` gave a melting point of 109 to 111 °C.
Molecule `O=C1Nc2cccc(-c3cccc4c3oc3ccccc34)c2C12COc1cc3c(cc12)OCO3` (stereo not drawn) has a melting point of over 230 °C.
Work on `COc1c(C)cc(-c2cncc(OC3SCC(O)C(O)C3O)c2)cc1C` (stereo not drawn) yielded a melting point of 173 °C.
For `CN1CCNCCNCCCNCCNCC1`, the melting point was 85 to 87 °C.
With `CCOc1ccc([N+](=O)[O-])c(F)c1` the melting point was 48 °C.
`COCCOC(=O)N=NC(=O)OCCOC` showed a melting point of 39.9 to 40.4 °C.
`Cn1c(=O)c2cnc(N)nc2n(C)c1=O` gave a melting point of over 300 °C.
Work on `CC(C)(C)c1cc(CON2C(=O)COc3ccc(C=C4SC(=S)NC4=O)cc32)cc(C(C)(C)C)n1` yielded a melting point of over 300 °C.
`O=C(C=Cc1cccc(Br)c1)c1cnc2sc3c(n12)CCCCC3` gave a melting point of 125 to 126 °C.
In the case of `c1ccc2c(c1)CC(CN1CCN(c3ccc4c(c3)OCC4)CC1)C2`, the melting point is reported as 171 to 173 °C.
Molecule `COC(=O)c1ccccc1-c1cc(-c2ccc(Cl)cc2Cl)no1` has a melting point of 94 to 96 °C.
Work on `O=C1C(Cc2ccccc2)NC(=S)N1c1nc(C(F)(F)F)cs1` (stereo not drawn) yielded a melting point of 187 to 189 °C.
Molecule `Cc1cc(-c2ccc(C(F)(F)F)c(C)c2)nc(-c2cccc(-c3ccc(S(N)(=O)=O)s3)c2)n1` has a melting point of 242 °C.
Work on `CCCCCN1CC[C@@H](c2ccccc2C(F)(F)F)[C@H](CO)C1` (racemic) yielded a melting point of 110 °C.
With `Cc1ccc2c(c1)N(CC(=O)c1ccccc1C)C(=O)C(NC(=O)Nc1cccc(C(=O)O)c1)CN2C(=O)c1cccs1` (stereo not drawn) the melting point was 219 to 222 °C.
Molecule `COc1ccc(S(=O)(=O)C(C)(Cc2ccc(OCCCN3CCC(c4cccc(Cl)c4)CC3)cc2)C(=O)NO)cc1` (stereo not drawn) has a melting point of 122 °C.
Molecule `CCN(CC)C(=O)c1cc(-c2ccc(C)cc2)nc2ccccc12` has a melting point of 52 °C.
For `CSc1nc2sccc2c(=O)[nH]1`, the melting point was 232 to 235 °C.
In the case of `COc1ccc(NC(=O)Nc2c(Cl)cncc2Cl)cc1OC1CCCC1`, the melting point is reported as 183 to 184 °C.
With `Cc1nn(-c2ccc(F)cc2)cc1C(=O)Nc1ccc(N2CCC(O)CC2)c(C#N)c1` the melting point was 224 to 225 °C.
`c1ccc2c(NCC3CCCCC3)c3cnn(C4CCCC4)c3nc2c1` showed a melting point of 290 to 292 °C.
For `COc1ccccc1N1CCN(CCCN2C(=O)c3ccccc3C2=O)CC1`, the melting point was 85 to 93 °C.
`CCCCNc1cc(-c2ccccc2)nc2onc(C)c12` showed a melting point of 126 to 127 °C.
Molecule `CCc1[nH]c(=S)n(Nc2cccc(C)c2)c1-c1ccccc1` has a melting point of 202 to 204 °C.
For `O=C(CCCSc1ccccc1)N1C(=O)OCC1Cc1ccccc1` (stereo not drawn), the melting point was 84 to 85 °C.
For `CN1CCN(c2ccc3c(ccc4c(=O)cc(C(=O)Nc5ccc(N6CCOCC6)cc5)oc43)c2)CC1`, the melting point was 217 to 218 °C.
With `CCCCCc1noc(-c2ccc(OCCC3CCN(c4ccc(C)nn4)CC3)cc2)n1` the melting point was 111 °C.
With `N#Cc1cc(NC(=O)c2cccn2-c2ccc(F)cc2)ccc1N1CCN(CCO)CC1` the melting point was 170 to 171 °C.
For `O=C(CCCCN1CCCCC1)c1ccc2c(c1)Cc1cc(C(=O)CCCCN3CCCCC3)ccc1-2`, the melting point was 124 to 127 °C.
In the case of `COC(=O)/C=C/C=C(\c1ccccc1)c1ccc(OC)cc1`, the melting point is reported as 88 to 89.5 °C.
With `CCOC(=O)/C=C(C)/C=C/C=C(\C)C1=Cc2cc(C(C)(C)C)ccc2OC1` the melting point was 129 °C.
Molecule `CN(Cc1cc(Cl)c(O)c(Br)c1)C1CCCCC1` has a melting point of 136 to 138 °C.
`CCCCCCCCCCCCCCCCCCS(=O)c1cc2ccccc2c(N=Nc2ccc(OC)cc2)c1O` (stereo not drawn) gave a melting point of 108 to 110 °C.
With `CS(=O)(=O)c1ccc(C(CC2CCCC2)C(=O)O)cc1S(C)(=O)=O` (stereo not drawn) the melting point was 64 to 68 °C.
Work on `CNC(=O)OC1CC(C)(C)N(C)C(C)(C)C1` yielded a melting point of 96 to 97 °C.
Work on `O=C(NN=Cc1ccncc1)OCc1ccccc1` yielded a melting point of 134 °C.
`CCc1c(-c2ccc(O)cc2)c2c(COCCCCCCN3CCCCC3)cc3c(O)ccc1n32` showed a melting point of 129 to 131 °C.
`Cc1nc(-c2ccc3c(c2)c(-c2cc4cccnc4[nH]2)cn3C)no1` showed a melting point of 290 to 294 °C.
With `C=CCc1c2c(cc3c(=O)cc(C(=O)O)oc13)CCCC2` the melting point was 235 to 237 °C.
`O=C(NCCc1ccccc1Cl)C1CCCCC1` gave a melting point of 93.5 to 93.9 °C.
Work on `CC(C)c1cccc(C(C)C)c1NC(=O)CN1CCN(c2cccc(Sc3nc4ccccc4[nH]3)c2)CC1` yielded a melting point of 123 to 125 °C.
`CC(C)(C)c1c(O)[nH]c(=O)[nH]c1=O` showed a melting point of 247 to 248 °C.
Work on `Cc1cnccc1C#N` yielded a melting point of 45 to 47 °C.
Work on `BrCCCSc1ccc2ncnn2n1` yielded a melting point of 133 to 135 °C.
In the case of `O=C(O)[C@@H]1CCCN1C(=O)c1ccccc1`, the melting point is reported as 152 to 154 °C.
For `CC(C)(C(=O)NC(Nc1c(Nc2cccnc2)c(=O)c1=O)C(C)(C)Cc1ccccc1)c1ccccc1` (stereo not drawn), the melting point was 228 to 231 °C.
For `COc1cc2c(cc1C#Cc1ccc(C(=O)O)cc1)C(C)(C)CCC2(C)C`, the melting point was 231 to 234 °C.
Molecule `Fc1ccc(Nc2nc(-c3ccc(F)cc3)cs2)cc1` has a melting point of 127 °C.
For `Nc1c(Cl)cc(C(=O)NC2CCN(CCO)CC2)c2c1CCO2`, the melting point was 186 °C.
For `COc1cc2c(cc1OC)CC(=O)N(CCC=O)C=C2`, the melting point was 95 to 96 °C.
With `C=CCCC(O)=C(C#N)C(=O)Nc1ccc(Cl)cc1` the melting point was 138 °C.
Work on `CS(=O)(=O)c1ccc(-c2cccn2-c2ccc(OC(F)(F)F)cc2)cc1` yielded a melting point of 150 to 152 °C.
`CC(=O)Nc1ccc(CNC(=O)c2cccnc2Oc2ccc(F)cc2)cc1` showed a melting point of 128 to 130 °C.
With `CC1(C)O[C@@]23CC(=O)CC[C@@]2(C)CC[C@@H]1C3` the melting point was 60 to 61 °C.
For `CCCCCCCCCCC(O)CNC` (stereo not drawn), the melting point was 56 to 57 °C.
In the case of `Oc1cc(-c2ccc(Cl)cc2)nc2ccc(F)cc12`, the melting point is reported as over 350 °C.
`O=C(O)c1cn(Cc2cccc(Oc3ccccc3)c2)nc1-c1ccccc1` gave a melting point of 148 to 149 °C.
`Cc1cc(N2CCN(C(=O)OC(C)(C)C)CC2)ccc1[N+](=O)[O-]` gave a melting point of 145 to 146 °C.
For `Oc1cccc(CCCCn2ccnc2)c1`, the melting point was 133 to 134 °C.
`CCOc1c(Nc2cccnc2)c(=O)c1=O` showed a melting point of 140 to 145 °C.
`Cc1cc(CCc2cc(C)c(O)c(C)c2Br)c(Br)c(C)c1O` gave a melting point of 191 to 194 °C.
Work on `CCN(CC)CCOc1ccc(Nc2ncc3c(n2)N(C)C(=O)N(c2ccccc2)C3)cc1` yielded a melting point of 141 to 144 °C.
`CNC(=O)ON=C(C)CN(c1c(C)cccc1C)S(C)(=O)=O` showed a melting point of 130 to 134 °C.
For `CCCCCCCCCCCC(=O)CO`, the melting point was 52 to 54 °C.
Work on `COc1cc2c(cc1Cl)C(=O)Cc1ccc(F)cc1S2` yielded a melting point of 195 to 197 °C.
`CCCn1c(=O)c2c(NC)n[nH]c2n(Cc2cccs2)c1=O` gave a melting point of over 300 °C.
`CC(=O)c1cccc(-c2nc3sccn3c2-c2ccnc(N[C@@H]3CCCN(S(=O)(=O)c4ccc(Cl)cc4)C3)n2)c1` showed a melting point of 124 to 127 °C.
`O=C(NCc1cccc2ccccc12)C1CCc2[nH]cnc2C1` (stereo not drawn) gave a melting point of 142 to 144 °C.
`Cc1cc(C(C)(C)C)c(O)c2c1C1CCCCC1C2=O` (stereo not drawn) gave a melting point of 77 to 78 °C.
Work on `CS(=O)(=O)NC(=O)Nc1ccc(Cl)cc1` yielded a melting point of 225 to 235 °C.
`O=C(O)C1=CCC2CC(=O)C12` (stereo not drawn) gave a melting point of 52 to 56 °C.

— a melting point compilation (Tetko et al.; mined from patent text by program, amines drawn as free bases though some values may be those of a salt)
